# Test results as given in paper PMC9518248, “Inhibition of Toxoplasma gondii by 1,2,4-triazole-based compounds: marked improvement in selectivity relative to the standard therapy pyrimethamine and sulfadiazine” (Journal of Enzyme Inhibition and Medicinal Chemistry, 2022).
# Key:
# [1] = system: mouse fibroblasts L929 cells; assay: Cell viability assay (MTT, ISO 10993-5); format: cell-based; settings: 24 h, highest dilution causing 30% or higher destruction of cells
# Method: Culture medium RPMI 1640, without phenol red (Biowest, Nuaille, France) supplemented with 10% FBS, 2 mM […] penicillin, 100 μg/mL streptomycin were used. Briefly, 1 × 10^4/well of L929 cells were placed in 96-well plates and incubated for 24 h at 37 °C and 10% CO2. Afterwards, the old culture medium was replaced with 100 μL of the compound, drug or inhibitor, diluted in culture medium and the cells treated for 24 h. Additionally, cells were treated with 0.03-4.0% concentration of DMSO as the solvent (data not shown). Then, 50 μL of 1 mg/mL of MTT solution in RPMI 1640 without phenol red was added to each well and incubated for 2 h at 37 °C and 10% CO2. Next, cell culture medium was aspirated carefully and 150 μL of DMSO was added to each well, and the plates were gently mixed. Then, 25 μL 0.1 M glycine buffer (pH 10.5) (Sigma-Aldrich) was added. The optical density at 570 nm using a multi-mode microplate reader SpectraMax® i3 (Syngen, Taipei City, Taiwan) was recorded. The results were expressed as a percentage of viability compared to untreated cells. All experiments were performed in triplicate. The reported methyl thiazolyltetrazole (MTT) method was used to study in vitro cytotoxic profile of the s-triazoles 1b-27b to the host cells (L929). Experiments were performed in accordance with the international standard IS0-10993-5:2009. […] The data for acyclic precursors 1a-27a are also included for comparison[39]^,[40].
# T. gondii RH-GFP = assay: Antiparasitic assay: T. gondii RH-GFP proliferation in Hs27 cells; format: cell-based, Toxoplasma gondii; settings: for IC50: Toxoplasma gondii, T. gondii RH-GFP in Hs27 cells, 96 h, values above highest tested concentration extrapolated, read-out: IC50Tg; for SI: selectivity index, CC30 (L929)/IC50Tg
# [2] = system: human glioblastoma T98G cells; assay: Cytotoxicity against glioblastoma cells (MTT); format: cell-based; settings: 24 h
# Method: (§1) Cytotoxic effect of 20b was evaluated using glioblastoma (T98G) cells obtained from the American Type Culture Collection (Manassas, VA). Cells were cultured in Dulbecco’s Modified Eagle’s Medium (DMEM-high glucose) (Sigma Aldrich, St. Louis, MO), supplemented with 10% heat inactivated FBS, penicillin (100 U/mL), and streptomycin (100 μg/mL) (Sigma Aldrich, St. Louis, MO). Cells were maintained in a humidified atmosphere of 5% CO2 and 95% air at 37 °C. Stock solutions of the investigated compounds (20b and temozolomide) were prepared by dissolving solid substances in a sterile DMSO. T98G glioblastoma cells were seeded into 96-well sterile plates at a density of 1 × 10^5cells/mL. After 24 h of incubation, the medium was removed from each well and then cells were incubated for the next 24 h with different concentrations of the investigated compounds (10, 25, 35, 50, and 100 µg/mL) in the medium containing 2% FBS. Viability of T98G cells was evaluated using MTT assay, whose principle is based on the conversion of 3–(4,5-dimethylthiazol-2-yl)-2,5-diphenyltetrazolium bromide (MTT) into dark-blue formazan crystals. In brief, after 24 h incubation of cells with varying concentrations of the tested compounds, culture medium was removed from the plate. Cells were washed with PBS, and then 100 µL of medium containing 10% MTT solution (5 mg/mL) was added to each well. After 3 h incubation, 100 µL (per well) of 10% SDS buffer solution was added to solubilise formazan crystals. After overnight incubation the absorbance was measured at 570 nm using a microplate reader (Epoch, BioTek Instruments, Winooski, VT). Experiments were repeated three times, and the measurements in each experiment were run in quadruplicate. Viability of the investigated cells was expressed as % of the viability of the untreated cells.
# [3] = Cytotoxicity against glioblastoma cells (MTT); format: cell-based, human; settings: human, T98G glioblastoma cells, MTT, read-out: Viability of T98G cells (% of control ± SD)
# Method: as §1
# [4] = Haemolytic activity determination; format: cell-based; settings: 0.1%, positive control, human RBCs, 37 °C, 30 min; read-out: Haemolysis (%)
# Method: Human red blood cells (RBCs) concentrate was obtained from the Regional Blood Donation and Transfusion Centre (Lublin, Poland). RBCs concentrate (5 mL) was washed three times with sterile PBS and centrifuged at 500 g for 3 min. […] The amount of free haemoglobin in supernatants was measured spectrophotometrically at 405 nm. Negative and positive controls were performed by incubating RBCs with sterile PBS and 0.1% Triton-X, respectively. Each experiment was run in triplicate.
SMILES,CC30 [1] [µg/mL],IC50 (T. gondii RH-GFP) [µg/mL],SI (T. gondii RH-GFP),melting point [°C],further results
"Cc1nc[nH]c1-c1n[nH]c(=S)n1-c1ccc(I)cc1 [12b, 4–(4-iodophenyl)-5–(4-methylimidazol-5-yl)-1,2,4-triazole-3-thione]",483.06,99.1,4.88,290,–
"Cc1ccccc1-n1c(-c2[nH]cnc2C)n[nH]c1=S [14b, 5–(4-methylimidazol-5-yl)-4–(2-methylphenyl)-1,2,4-triazole-3-thione]",2414.35,77.3,31.23,249.9,–
"Cc1cccc(-n2c(-c3[nH]cnc3C)n[nH]c2=S)c1 [15b, 5–(4-methylimidazol-5-yl)-4–(3-methylphenyl)-1,2,4-triazole-3-thione]",579.43,79.1,7.33,248.7,–
"Cc1ccc(-n2c(-c3[nH]cnc3C)n[nH]c2=S)cc1Cl [17b, 4–(3-chloro-4-methylphenyl)-5–(4-methylimidazol-5-yl)-1,2,4-triazole-3-thione]",414.57,175,2.37,264.1,–
"COc1ccc(-n2c(-c3[nH]cnc3C)n[nH]c2=S)cc1OC [21b, 4–(3,4-dimethoxyphenyl)-5–(4-methylimidazol-5-yl)-1,2,4-triazole-3-thione]",318.42,139,2.29,213.4,–
"CCOc1ccc(-n2c(-c3[nH]cnc3C)n[nH]c2=S)cc1 [22b, 4–(4-ethoxyphenyl)-5–(4-methylimidazol-5-yl)-1,2,4-triazole-3-thione]",1881.91,64.2,29.33,239.9,–
"Cc1nc[nH]c1-c1n[nH]c(=S)n1-c1c(C(C)C)cccc1C(C)C [24b, 4–(2,6-diisopropylphenyl)-5–(4-methylimidazol-5-yl)-1,2,4-triazole-3-thione]",144.94,61.7,2.35,251.9,–
"Cc1nc[nH]c1-c1n[nH]c(=S)n1-c1ccc(N(C)C)cc1 [25b, 5–(4-methylimidazol-5-yl)-4–(4-dimethyloaminophenyl)-1,2,4-triazole-3-thione]",755.61,285,2.65,288.2,–
"CCN(CC)c1ccc(-n2c(-c3[nH]cnc3C)n[nH]c2=S)cc1 [26b, 4–(4-diethylaminophenyl)-5–(4-methylimidazol-5-yl)-1,2,4-triazole-3-thione]",230.94,157,1.47,147,–
"Cc1nc[nH]c1-c1n[nH]c(=S)n1Cc1ccccc1 [27b, 4-benzyl-5–(4-methylimidazol-5-yl)-1,2,4-triazole-3-thione]",425.30,148,2.87,229.5,–
"Cn1nnc2c(C(N)=O)ncn2c1=O [Temozolomide, reference compound]",–,–,–,–,"reduction of T98G cell viability ([2]; 10 µg/mL): ~33%; reduction of T98G cell viability ([2]; 100 µg/mL): ~46%; viability at 24 h, 10 µg/mL ([3]; 10 µg/mL): 66.6 ± 1.07%; viability at 24 h, 25 µg/mL ([3]; 25 µg/mL): 61.11 ± 0.45%; viability at 24 h, 35 µg/mL ([3]; 35 µg/mL): 57.3 ± 2.25%; viability at 24 h, 50 µg/mL ([3]; 50 µg/mL): 55.3 ± 1.81%; viability at 24 h, 100 µg/mL ([3]; 100 µg/mL): 53.95 ± 0.33%"
"CC(C)(C)CC(C)(C)c1ccc(OCCO)cc1 [Triton-X, reference compound]",–,–,–,–,"hemolysis at 30 min, 0.1 % [4]: 99.78 ± 0.34%"
